How the values were obtained:
corn [1] = test: Test C preemergence; type: in vivo, Zea mays; details: 0 to 100 scale (0 no effect, 100 complete control); for Plant response rating, Corn: Preemergence, 500 g ai/ha, visual rating after 10 days; for Corn plant response rating: Test C, preemergence, 125 g ai/ha
Outline: (§1)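 Soil-applied (pre) and foliar (post, 1–2 leaf, 2–10 cm) sprays; surfactant-containing non-phytotoxic solvent vehicle; loam/sand substrate. Readout: visual % control at 10 d, greenhouse, versus untreated.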

ragweed [2] = test: Test C postemergence; type: in vivo, Ambrosia artemisiifolia; details: 10 days
Outline: as §1

soybean [3] = test: Test C postemergence; type: in vivo, Glycine max; details: 10 days
Outline: as §1

green foxtail [4] = test: Test C postemergence; type: in vivo, Setaria viridis; details: 10 days
Outline: as §1

blackgrass [5] = test: Test C postemergence; type: in vivo, Alopecurus myosuroides; details: 10 days
Outline: as §1

ragweed [6] = test: Test C preemergence; type: in vivo, Ambrosia artemisiifolia; details: 0 to 100 scale (0 no effect, 100 complete control); for Plant response rating, Ragweed: Preemergence, 500 g ai/ha, visual rating after 10 days; for Ragweed plant response rating: Test C, preemergence, 125 g ai/ha
Outline: as §1

wheat [7] = test: Test C postemergence; type: in vivo, Triticum aestivum; details: 10 days
Outline: as §1

blackgrass [8] = test: Test C preemergence; type: in vivo, Alopecurus myosuroides; details: 0 to 100 scale (0 no effect, 100 complete control); for Plant response rating, Blackgrass: Preemergence, 500 g ai/ha, visual rating after 10 days; for Blackgrass plant response rating: Test C, preemergence, 125 g ai/ha
Outline: as §1

rice = test: Test D flooded paddy test; type: in vivo, Oryza sativa; details: 250 g ai/ha, applied to paddy water, visual rating after 13 to 14 days, scale 0 to 100 (0 no effect, 100 complete control)
Outline: (§2)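 Rating scale 0–100 (0 no effect, 100 complete control), visual, versus controls. Readout at 13–14 days after in-water application to 2-leaf plants in pots flooded 3 cm deep.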

wheat [9] = test: Test C preemergence; type: in vivo, Triticum aestivum; details: 0 to 100 scale (0 no effect, 100 complete control); for Plant response rating, Wheat: Preemergence, 500 g ai/ha, visual rating after 10 days; for Wheat plant response rating: Test C, preemergence, 125 g ai/ha
Outline: as §1

corn [10] = test: Test C postemergence; type: in vivo, Zea mays; details: 10 days
Outline: as §1

soybean [11] = test: Test C preemergence; type: in vivo, Glycine max; details: 0 to 100 scale (0 no effect, 100 complete control); for Plant response rating, Soybean: Preemergence, 500 g ai/ha, visual rating after 10 days; for Soybean plant response rating: Test C, preemergence, 125 g ai/ha
Outline: as §1

horseweed = test: Test C postemergence; type: in vivo, Erigeron canadensis; details: 10 days
Outline: as §1

green foxtail [12] = test: Test C preemergence; type: in vivo, Setaria viridis; details: 0 to 100 scale (0 no effect, 100 complete control); for Plant response rating, Foxtail, Green: Preemergence, 500 g ai/ha, visual rating after 10 days; for Foxtail, Green plant response rating: Test C, preemergence, 125 g ai/ha
Outline: as §1

oat, wild [13] = test: Test C postemergence; type: in vivo, Avena fatua; details: 10 days
Outline: as §1

pigweed, palmer [14] = test: Test C postemergence; type: in vivo, Amaranthus palmeri; details: 10 days
Outline: as §1

barnyardgrass [15] = test: Test C postemergence; type: in vivo, Echinochloa crusgalli; details: 10 days
Outline: as §1

barnyardgrass [16] = test: Test C preemergence; type: in vivo, Echinochloa crusgalli; details: 0 to 100 scale (0 no effect, 100 complete control); for Plant response rating, Barnyardgrass: Preemergence, 500 g ai/ha, visual rating after 10 days; for Barnyardgrass plant response rating: Test C, preemergence, 125 g ai/ha
Outline: as §1

oat, wild [17] = test: Test C preemergence; type: in vivo, Avena fatua; details: 0 to 100 scale (0 no effect, 100 complete control); for Plant response rating, Oat, Wild: Preemergence, 500 g ai/ha, visual rating after 10 days; for Oat, Wild plant response rating: Test C, preemergence, 125 g ai/ha
Outline: as §1

pigweed, palmer [18] = test: Test C preemergence; type: in vivo, Amaranthus palmeri; details: 0 to 100 scale (0 no effect, 100 complete control); for Plant response rating, Pigweed, Palmer: Preemergence, 500 g ai/ha, visual rating after 10 days; for Pigweed, Palmer plant response rating: Test C, preemergence, 125 g ai/ha
Outline: as §1

sedge, umbrella = test: Test D flooded paddy test; type: in vivo, Cyperus difformis; details: 250 g ai/ha, applied to paddy water, visual rating after 13 to 14 days, scale 0 to 100 (0 no effect, 100 complete control)
Outline: as §2

ryegrass, Italian [19] = test: Test C preemergence; type: in vivo, Lolium multiflorum; details: 0 to 100 scale (0 no effect, 100 complete control); for Plant response rating, Ryegrass, Italian: Preemergence, 500 g ai/ha, visual rating after 10 days; for Ryegrass, Italian plant response rating: Test C, preemergence, 125 g ai/ha
Outline: as §1

ryegrass, Italian [20] = test: Test C postemergence; type: in vivo, Lolium multiflorum; details: 10 days
Outline: as §1

ducksalad = test: Test D flooded paddy test; type: in vivo, Heteranthera limosa; details: 250 g ai/ha, applied to paddy water, visual rating after 13 to 14 days, scale 0 to 100 (0 no effect, 100 complete control)
Outline: as §2

kochia [21] = test: Test C preemergence; type: in vivo, Bassia scoparia; details: 0 to 100 scale (0 no effect, 100 complete control); for Plant response rating, Kochia: Preemergence, 500 g ai/ha, visual rating after 10 days; for Kochia plant response rating: Test C, preemergence, 125 g ai/ha
Outline: as §1

kochia [22] = test: Test C postemergence; type: in vivo, Bassia scoparia; details: 10 days
Outline: as §1

barnyardgrass [23] = test: Test D flooded paddy test; type: in vivo, Echinochloa crus-galli; details: 250 g ai/ha, applied to paddy water, visual rating after 13 to 14 days, scale 0 to 100 (0 no effect, 100 complete control)
Outline: as §2

[24] = 125 g ai/ha, postemergence, 0 to 100 scale, 0 no effect, 100 complete control
[25] = Postemergence, 500 g ai/ha, visual 0 to 100 scale (0 no effect, 100 complete control)

SMILES: COc1cc(C(=O)N2C[C@H](C)Oc3c(Cl)cccc32)cc(-n2cnc(C(C)C)n2)c1 [Compound 212]
- Plant response rating, Corn (corn [1]): 70
- Corn plant response rating (corn [1]): 20
- Plant response rating, Ragweed (ragweed [2]; [24]): 20
- Plant response rating, Ragweed (ragweed [2]; [25]): 70
- Plant response rating, Soybean (soybean [3]; [24]): 100
- Plant response rating, Soybean (soybean [3]; [25]): 100
- Plant response rating, Foxtail, Green (green foxtail [4]; [24]): 80
- Plant response rating, Foxtail, Green (green foxtail [4]; [25]): 90
- Plant response rating, Blackgrass (blackgrass [5]; [24]): 50
- Plant response rating, Blackgrass (blackgrass [5]; [25]): 100
- Plant response rating, Ragweed (ragweed [6]): 50
- Ragweed plant response rating (ragweed [6]): 0
- Plant response rating, Wheat (wheat [7]; [24]): 20
- Plant response rating, Wheat (wheat [7]; [25]): 80
- Plant response rating, Blackgrass (blackgrass [8]): 90
- Blackgrass plant response rating (blackgrass [8]): 60
- Plant response rating, Rice (Flood) (rice): 40
- Plant response rating, Wheat (wheat [9]): 30
- Wheat plant response rating (wheat [9]): 40
- Plant response rating, Corn (corn [10]; [24]): 20
- Plant response rating, Corn (corn [10]; [25]): 90
- Plant response rating, Soybean (soybean [11]): 100
- Soybean plant response rating (soybean [11]): 90
- Plant response rating, Horseweed (horseweed; [24]): 0
- Plant response rating, Horseweed (horseweed; [25]): 50
- Plant response rating, Foxtail, Green (green foxtail [12]): 100
- Foxtail, Green plant response rating (green foxtail [12]): 100
- Plant response rating, Oat, Wild (oat, wild [13]; [24]): 40
- Plant response rating, Oat, Wild (oat, wild [13]; [25]): 80
- Plant response rating, Pigweed, Palmer (pigweed, palmer [14]; [24]): 90
- Plant response rating, Pigweed, Palmer (pigweed, palmer [14]; [25]): 90
- Plant response rating, Barnyardgrass (barnyardgrass [15]; [24]): 30
- Plant response rating, Barnyardgrass (barnyardgrass [15]; [25]): 50
- Plant response rating, Barnyardgrass (barnyardgrass [16]): 100
- Barnyardgrass plant response rating (barnyardgrass [16]): 80
- Plant response rating, Oat, Wild (oat, wild [17]): 90
- Oat, Wild plant response rating (oat, wild [17]): 70
- Plant response rating, Pigweed, Palmer (pigweed, palmer [18]): 100
- Pigweed, Palmer plant response rating (pigweed, palmer [18]): 100
- Plant response rating, Sedge, Umbrella (Flood) (sedge, umbrella): 98
- Plant response rating, Ryegrass, Italian (ryegrass, Italian [19]): 100
- Ryegrass, Italian plant response rating (ryegrass, Italian [19]): 90
- Plant response rating, Ryegrass, Italian (ryegrass, Italian [20]; [24]): 50
- Plant response rating, Ryegrass, Italian (ryegrass, Italian [20]; [25]): 70
- Plant response rating, Ducksalad (Flood) (ducksalad): 95
- Plant response rating, Kochia (kochia [21]): 90
- Kochia plant response rating (kochia [21]): 90
- Plant response rating, Kochia (kochia [22]; [24]): 80
- Plant response rating, Kochia (kochia [22]; [25]): 90
- Plant response rating, Barnyardgrass (Flood) (barnyardgrass [23]): 25

SMILES: COc1cc(C(=O)N2C[C@H](C)Oc3c(Cl)cccc32)cc(-n2cnc(C3CCC3)n2)c1 [Compound 214]
- Plant response rating, Corn (corn [1]): 20
- Corn plant response rating (corn [1]): 10
- Plant response rating, Ragweed (ragweed [2]; [24]): 40
- Plant response rating, Ragweed (ragweed [2]; [25]): 40
- Plant response rating, Soybean (soybean [3]; [24]): 100
- Plant response rating, Soybean (soybean [3]; [25]): 100
- Plant response rating, Foxtail, Green (green foxtail [4]; [24]): 30
- Plant response rating, Foxtail, Green (green foxtail [4]; [25]): 80
- Plant response rating, Blackgrass (blackgrass [5]; [24]): 0
- Plant response rating, Blackgrass (blackgrass [5]; [25]): 80
- Plant response rating, Ragweed (ragweed [6]): 0
- Ragweed plant response rating (ragweed [6]): 10
- Plant response rating, Wheat (wheat [7]; [24]): 20
- Plant response rating, Wheat (wheat [7]; [25]): 30
- Plant response rating, Blackgrass (blackgrass [8]): 70
- Blackgrass plant response rating (blackgrass [8]): 20
- Plant response rating, Rice (Flood) (rice): 0
- Plant response rating, Wheat (wheat [9]): 30
- Wheat plant response rating (wheat [9]): 10
- Plant response rating, Corn (corn [10]; [24]): 60
- Plant response rating, Corn (corn [10]; [25]): 70
- Plant response rating, Soybean (soybean [11]): 80
- Soybean plant response rating (soybean [11]): 30
- Plant response rating, Horseweed (horseweed; [24]): 0
- Plant response rating, Horseweed (horseweed; [25]): 40
- Plant response rating, Foxtail, Green (green foxtail [12]): 100
- Foxtail, Green plant response rating (green foxtail [12]): 100
- Plant response rating, Oat, Wild (oat, wild [13]; [24]): 20
- Plant response rating, Oat, Wild (oat, wild [13]; [25]): 20
- Plant response rating, Pigweed, Palmer (pigweed, palmer [14]; [24]): 100
- Plant response rating, Pigweed, Palmer (pigweed, palmer [14]; [25]): 100
- Plant response rating, Barnyardgrass (barnyardgrass [15]; [24]): 20
- Plant response rating, Barnyardgrass (barnyardgrass [15]; [25]): 20
- Plant response rating, Barnyardgrass (barnyardgrass [16]): 100
- Barnyardgrass plant response rating (barnyardgrass [16]): 50
- Plant response rating, Oat, Wild (oat, wild [17]): 80
- Oat, Wild plant response rating (oat, wild [17]): 0
- Plant response rating, Pigweed, Palmer (pigweed, palmer [18]): 100
- Pigweed, Palmer plant response rating (pigweed, palmer [18]): 100
- Plant response rating, Sedge, Umbrella (Flood) (sedge, umbrella): 90
- Plant response rating, Ryegrass, Italian (ryegrass, Italian [19]): 90
- Ryegrass, Italian plant response rating (ryegrass, Italian [19]): 80
- Plant response rating, Ryegrass, Italian (ryegrass, Italian [20]; [24]): 20
- Plant response rating, Ryegrass, Italian (ryegrass, Italian [20]; [25]): 40
- Plant response rating, Ducksalad (Flood) (ducksalad): 70
- Plant response rating, Kochia (kochia [21]): 100
- Kochia plant response rating (kochia [21]): 90
- Plant response rating, Kochia (kochia [22]; [24]): 70
- Plant response rating, Kochia (kochia [22]; [25]): 100
- Plant response rating, Barnyardgrass (Flood) (barnyardgrass [23]): 0

From patent US20260262643A1, “HERBICIDAL BENZOXAZINES” (FMC CORPORATION, priority 2022, published 2026)
